One assay concerns the target T1, Human matriptase-1 (Homo sapiens, UniProt Q9Y5Y6).
T1 construct: made in house
T1 sequence (Q9Y5Y6 615-855 limits assumed): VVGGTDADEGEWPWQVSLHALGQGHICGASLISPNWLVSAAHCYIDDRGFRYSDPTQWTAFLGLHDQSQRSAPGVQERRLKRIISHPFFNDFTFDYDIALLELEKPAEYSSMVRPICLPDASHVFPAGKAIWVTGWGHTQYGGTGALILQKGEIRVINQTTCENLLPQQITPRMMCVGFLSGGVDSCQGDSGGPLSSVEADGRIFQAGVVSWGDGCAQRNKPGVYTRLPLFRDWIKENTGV
Put plainly: Matriptase-1 inhibition assay (Ki / Ki app). The class given is biochemical.

The target of assay [1] is T2, Bovine pancreatic trypsin (Bos taurus, UniProt P00760).
T2 construct: purchased Sigma-Aldrich
T2 sequence (P00760 24-246): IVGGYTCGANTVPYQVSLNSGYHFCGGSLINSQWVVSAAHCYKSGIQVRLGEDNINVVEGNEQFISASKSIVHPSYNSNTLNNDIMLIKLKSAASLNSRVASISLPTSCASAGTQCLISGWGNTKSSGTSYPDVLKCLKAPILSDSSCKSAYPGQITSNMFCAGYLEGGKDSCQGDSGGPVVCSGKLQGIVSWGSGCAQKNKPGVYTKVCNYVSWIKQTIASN
The assay can be described thus: Trypsin inhibition assay (substrate-independent Ki). The class given is biochemical. The note with it: substrate-independent Ki from Ki app (Morrison equation) and Km; 250 µM substrate; preincubation 30 min RT; read over 30 min; triplicate.
Procedure: Bovine pancreatic trypsin, thrombin and uPA were purchased from Sigma-Aldrich and Hepsin from R&D Systems.
Measurements were carried out in triplicate using a Tecan Genios ELISA reader. The normalized residual proteolytic activity (v/v0) of proteases was determined using substrates Boc-QAR-pNA (250 µM, (pNA stands for para-nitro aniline), Boc-QAR-AMC (250 µM, AMC stands for amino-methyl coumarin) or Spectrozym tPA (250 µM, American Diagnostica, CH3SO2-D-CHT-Gly-Arg-pNA AcOH). Product formation was monitored after preincubation (30 min, RT) with inhibitor at different concentrations over 30 min by measuring the absorbance at 405 nm for pNA substrates or the fluorescence emission for AMC substrates (ex. 360 nm, em. 465 nm), respectively. Selectivity data were carried out in duplicates with final protease concentrations of uPA and thrombin of 5 nM. In case of hepsin 50 mM Tris/HCl pH 9.0 was used as assay buffer.
(§1) Apparent inhibition constants (Ki ^app) were calculated by fitting the Morrison equation (1) for tight-binding inhibitors to the relative reaction velocity using non-linear regression (Marquardt-Levenberg algorithm, Sigma Plot 11) [63].
(§2) Substrate-independent inhibition constants Ki were calculated from Ki ^app and Km of the enzyme according to (2).

Assay [2] has as its system uPA activation by matriptase-1 on the surface of PC-3 cells. The assay can be described thus: Cell inhibition assay: uPA activation by matriptase-1 on the surface of PC-3 cells. The settings on record: control, concentration of 10 µM. The class given is cell-based, human. As for the experimental part:
Human prostate cancer cells (PC-3, Merck KGaA) were cultured in DMEM medium with 10% FCS at 37°C and 5% CO2, washed with cation-free PBS and harvested by scraping. 1×10^5 cells were incubated in presence of 250 µM Bz-β-Ala-Gly-Arg-pNA·AcOH (American Diagnostica), which is a specific […] of urokinase, and the inhibitor of interest in defined dilutions overnight. Product formation was monitored at 405 nm before and after incubation in a microplate reader. IC50 was calculated by non-linear regression using SigmaPlot 11.
Urokinase-type plasminogen activator (uPA) causes the degradation of the extracellular matrix and plays a critical role in tumor invasion and metastasis, [73]. It was shown that activation of receptor-bound pro-uPA is affected by matriptase-1, which results in a decreased ability of uPAexpressing tumor cells to invade an extracellular matrix layer upon inhibition of membrane-bound matriptase-1 [72].
For the indirect determination of the IC50 of SOTI Var. 1 and MCoTI Var. 4 on the surface of these cancer cells, the turnover of an uPA substrate was monitored. Pro-uPA is activated through non-inhibited matriptase-1 and substrate turnover was measured and compared to the previously reported small molecule inhibitor S1 of matriptase-1 (Figure 4). In this experimental setting, the MCoTI-based inhibitor Var. […] 4 in this assay.
Figure 4 Inhibition assay of uPA activation by matriptase-1 on the surface of PC-3 cells. Depicted is the logarithmic inhibitor concentration against the absorption at 405 TEXT PRINTED IN THE PICTURE: MCoTI Var.

Setting [3] is: substrate-independent Ki from Ki app (Morrison equation) and Km, 250 µM substrate, preincubation 30 min RT, read over 30 min, triplicate, read-out: Ki (Matriptase-1).
The mark [4] stands for this setting: apparent inhibition constant (Morrison equation), MCoTI variants isolated from M. cochinchinensis seeds, oMCoTI-II synthetic, read-out: Kiapp towards matriptase-1.

Each structure is given as a SMILES string. Read-outs that look alike come from different tables or passages of the source. Where a SMILES comes first, the peptide text is derived from it. Bridges are numbered along the chain shown (N, C = ends).

Procedure for Human matriptase-1: Human matriptase-1 was produced recombinantly, autocatalytically activated and purified as previously reported [35], [49], [51], [60].
Measurements were carried out in triplicate using a Tecan Genios ELISA reader.
as §1, §2

Turning to `CC[C@H](C)[C@H](N)C(=O)NCC(=O)N[C@H](C(=O)N[C@H]1CSSC[C@@H]2NC(=O)[C@H](C)NC(=O)CNC(=O)[C@@H]3CCCN3C(=O)[C@@H]3CSSC[C@@H](C(=O)NCC(N)=O)NC(=O)[C@H](Cc4ccc(O)cc4)NC(=O)CNC(=O)[C@H](CC(N)=O)NC(=O)CNC(=O)[C@H](CCCNC(=N)N)NC(=O)[C@H](CSSC[C@H](NC(=O)[C@H](C)NC(=O)[C@H](CCCNC(=N)N)NC(=O)[C@H](CC(C)C)NC(=O)[C@H](CC(C)C)NC(=O)[C@H](CCCCN)NC(=O)[C@@H]4CCCN4C1=O)C(=O)N[C@@H](CCCNC(=N)N)C(=O)N[C@@H](CCCNC(=N)N)C(=O)N[C@@H](CC(=O)O)C(=O)N[C@@H](CO)C(=O)N[C@@H](CC(=O)O)C(=O)N3)NC(=O)[C@H]([C@@H](C)CC)NC2=O)C(C)C` [MCoTI Var. 1] (H-IGVCPKLLRACRRDSDCPGACICRGNGYCG-NH2; disulfide 4-21, 11-23, 17-29), the figures for the Ki (on Human matriptase-1 (setting [3]); in assay [1]) were 4.4 ± 0.6 nM and 31.7 ± 4.3 nM, respectively.
On the same counts, the results for `CC[C@H](C)[C@@H]1NC(=O)[C@@H]2CSSC[C@H](NC(=O)[C@H](CCCNC(=N)N)NC(=O)[C@H](CCCNC(=N)N)NC(=O)[C@@H](N)CC(N)=O)C(=O)N3CCC[C@H]3C(=O)N[C@@H](CCCCN)C(=O)N[C@@H](C(C)C)C(=O)N[C@@H](CC(C)C)C(=O)N[C@@H](CCCCN)C(=O)N[C@@H](C)C(=O)N[C@H]3CSSC[C@H](NC1=O)C(=O)N[C@@H](CCCNC(=N)N)C(=O)NCC(=O)N[C@@H](CC(N)=O)C(=O)NCC(=O)N[C@@H](Cc1ccc(O)cc1)C(=O)N[C@H](C(=O)NCC(N)=O)CSSC[C@H](NC(=O)[C@H](CC(=O)O)NC(=O)[C@H](CO)NC(=O)[C@H](CC(=O)O)NC(=O)[C@H](CCCNC(=N)N)NC(=O)[C@H](CCCNC(=N)N)NC3=O)C(=O)N1CCC[C@H]1C(=O)NCC(=O)N[C@@H](C)C(=O)N2` [MCoTI Var. 2] are 3.3 ± 0.4 nM and 19.2 ± 2.8 nM.
As to `CC[C@H](C)[C@@H]1NC(=O)[C@@H]2CSSC[C@@H]3NC(=O)[C@H](C(C)C)NC(=O)CNC(=O)CNC(=O)C[C@@H](C(=O)O)NC(=O)[C@H](CO)NC(=O)CNC(=O)[C@H](CO)NC(=O)CNC(=O)[C@@H]4CSSC[C@H](NC(=O)[C@H](CC(=O)O)NC(=O)[C@H](CO)NC(=O)[C@H](CC(=O)O)NC(=O)[C@H](CCCNC(=N)N)NC(=O)[C@H](CCCNC(=N)N)NC(=O)[C@H](CSSC[C@H](NC1=O)C(=O)N[C@@H](CCCNC(=N)N)C(=O)NCC(=O)N[C@@H](CC(N)=O)C(=O)NCC(=O)N[C@@H](Cc1ccc(O)cc1)C(=O)N4)NC(=O)[C@H](CCCCN)NC(=O)[C@H](CCCCN)NC(=O)[C@H](CC(C)C)NC(=O)[C@H]([C@@H](C)CC)NC(=O)[C@H](CCCCN)NC(=O)[C@@H]1CCCN1C3=O)C(=O)N1CCC[C@H]1C(=O)NCC(=O)N[C@@H](C)C(=O)N2` [MCoTI-II (ß-asp), reference compound] (GGVCPKILKKCRRDSDCPGACICRGNGYCGSGSD-OH; disulfide 4-21, 11-23, 17-29; lactam N-34), the Ki at Human matriptase-1 (setting [4]) is 388 ± 32 nM.
Take `CC[C@H](C)[C@@H]1NC(=O)[C@H](C)NC(=O)CNC(=O)[C@H](CO)NC(=O)[C@@H]2CCCN2C(=O)[C@H](CO)NC(=O)[C@@H](NC(=O)[C@H](CCCCN)NC(=O)[C@H](CC(=O)O)NC(=O)[C@@H](N)CCC(=O)O)CSSC[C@@H]2NC(=O)[C@@H]3CSSC[C@@H](C(=O)N[C@@H](CCC(N)=O)C(=O)O)NC(=O)[C@H](CCCNC(=N)N)NC(=O)[C@H](Cc4c[nH]c5ccccc45)NC(=O)[C@H](CO)NC(=O)[C@H](CCCNC(=N)N)NC(=O)[C@H](C)NC(=O)[C@H](CCCNC(=N)N)NC(=O)[C@H](CCCNC(=N)N)NC(=O)[C@H](CC(N)=O)NC(=O)[C@H](CC(C)C)NC(=O)[C@H](C(C)C)NC(=O)[C@H](CSSC[C@H](NC1=O)C(=O)N[C@@H](CO)C(=O)NCC(=O)N[C@@H](Cc1ccccc1)C(=O)NCC(=O)N1CCC[C@H]1C(=O)N1CCC[C@H]1C(=O)N[C@@H](CCC(=O)O)C(=O)N[C@@H](CCC(N)=O)C(=O)N3)NC(=O)[C@H](C)NC(=O)CNC(=O)[C@H](CO)NC2=O` [SOTI Var. 1] (H-EDKCSPSGAICSGFGPPEQCCSGACVLNRRARSWRCQ-OH; disulfide 4-21, 11-25, 20-36): the Ki on Human matriptase-1 (setting [3]) came out at 28.9 ± 3.5 nM. In assay [1], the Ki is over 1000 nM and the “Ki (Trypsin)” value was “total loss of trypsin inhibition”.
As for `CC[C@H](C)[C@@H]1NC(=O)[C@H](C)NC(=O)CNC(=O)[C@H](CO)NC(=O)[C@@H]2CCCN2C(=O)[C@H](CO)NC(=O)[C@@H](NC(=O)[C@H](CCCCN)NC(=O)[C@H](CC(=O)O)NC(=O)[C@@H](N)CCC(=O)O)CSSC[C@@H]2NC(=O)[C@@H]3CSSC[C@@H](C(=O)N[C@@H](CCC(N)=O)C(=O)O)NC(=O)[C@H](C(C)C)NC(=O)[C@H](Cc4ccccc4)NC(=O)[C@H]([C@@H](C)CC)NC(=O)[C@H](CCCNC(=N)N)NC(=O)[C@H](CC(C)C)NC(=O)[C@H]([C@@H](C)CC)NC(=O)[C@@H]4CCCN4C(=O)[C@H](Cc4c[nH]cn4)NC(=O)[C@@H]4CCCN4C(=O)[C@H](C(C)C)NC(=O)[C@H](CSSC[C@H](NC1=O)C(=O)N[C@@H](CO)C(=O)NCC(=O)N[C@@H](Cc1ccccc1)C(=O)NCC(=O)N1CCC[C@H]1C(=O)N1CCC[C@H]1C(=O)N[C@@H](CCC(=O)O)C(=O)N[C@@H](CCC(N)=O)C(=O)N3)NC(=O)[C@H](C)NC(=O)CNC(=O)[C@H](CO)NC2=O` [SOTI-III wt, Spinacia oleracea trypsin inhibitor III, reference compound] (H-EDKCSPSGAICSGFGPPEQCCSGACVPHPILRIFVCQ-OH; disulfide 4-21, 11-25, 20-36), the “Ki (Matriptase-1)” value at Human matriptase-1 (substrate-independent Ki from Ki app (Morrison equation) and Km, 250 µM substrate, preincubation 30 min RT, read over 30 min, triplicate) is on record as “did not display measurable inhibitory activity”. Moreover, the Ki on Human matriptase-1 (setting [3]) was over 1000 nM; in assay [1], 60.6 ± 8.4 nM. In addition, the “inhibition of matriptase-1 or uPA in the PC-3 assay” value in assay [2] was “no inhibition”.
For `CC[C@H](C)[C@@H]1NC(=O)[C@@H]2CSSC[C@H](NC(=O)[C@@H](NC(=O)CNC(=O)[C@@H](N)CO)C(C)C)C(=O)N3CCC[C@H]3C(=O)N[C@@H](CCCCN)C(=O)N[C@@H]([C@@H](C)CC)C(=O)N[C@@H](CC(C)C)C(=O)N[C@@H](CCCCN)C(=O)N[C@@H](CCCCN)C(=O)N[C@H]3CSSC[C@H](NC1=O)C(=O)N[C@@H](CCCNC(=N)N)C(=O)NCC(=O)N[C@@H](CC(N)=O)C(=O)NCC(=O)N[C@@H](Cc1ccc(O)cc1)C(=O)N[C@H](C(=O)NCC(N)=O)CSSC[C@H](NC(=O)[C@H](CC(=O)O)NC(=O)[C@H](CO)NC(=O)[C@H](CC(=O)O)NC(=O)[C@H](CCCNC(=N)N)NC(=O)[C@H](CCCNC(=N)N)NC3=O)C(=O)N1CCC[C@H]1C(=O)NCC(=O)N[C@@H](C)C(=O)N2` [oMCoTI-II, reference compound] (H-SGVCPKILKKCRRDSDCPGACICRGNGYCG-NH2; disulfide 4-21, 11-23, 17-29), the Ki at Human matriptase-1 (setting [4]) was 276 ± 13 nM.

These data come from publication PMC3795654, “Combinatorial Optimization of Cystine-Knot Peptides towards High-Affinity Inhibitors of Human Matriptase-1” (PLoS ONE, 2013).
